According to patent US20260116865A1, “PHOSPHOR FOR DETECTING FIRE BLIGHT PATHOGEN AND USE THEREOF” (UNIVERSITY-INDUSTRY COOPERATION GROUP OF KYUNG HEE …, priority 2023, published 2026):
One block for each molecule: values may come before it.

Columns and labels:
E. amylovora [1] = assay: Staining ability for E. amylovora, confocal laser scanning microscopy; format: cell-based, Erwinia amylovora; conditions: B-1 30 μM with DAPI 300 nM in PBS, 1 hour
Method: Specifically, E. amylovora obtained as described in Example 2 was stained by reacting with 30 μM of B-1 in phosphate-buffered saline (PBS) for 1 hour. To visualize […] E. amylovora, a counterstain with 300 nM of 4′,6-diamidino-2-phenylindole (DAPI) was applied simultaneously. The stained E. amylovora was then washed three times with PBS to remove residual B-1 and DAPI, followed by heat fixation and mounting on a slide glass for imaging using a confocal laser scanning microscope (Carl Zeiss, Germany). During confocal microscopy, differential interference contrast (DIC) images were also captured. The wavelengths used for imaging were as follows: [DAPI] excitation wavelength: 405 nm, emission wavelength: 410-530 nm, [B-1] excitation wavelength: 561 nm, emission wavelength: 600-700 nm.

E. amylovora [2] = assay: Detection of E. amylovora on agricultural tool surfaces (spraying); design: species or system Erwinia amylovora; conditions: 100 μM B-1 sprayed twice, 365 nm flashlight
Description: To evaluate whether the phosphor compound B-1 synthesized in Example 1 could detect E. amylovora present on objects, a spraying-based detection method was employed. As the test object, farming tools, which are known to be one of the causes of cross-contamination from infected plants in orchards, were used.
Specifically, to simulate farming tools exposed to E. amylovora, pruning shears and a trowel were either used to cut fire blight-infected plants directly or rubbed in soil contaminated with E. amylovora, as shown in FIG. 9a. Detection of E. amylovora was carried out by spraying 100 μM of B-1 solution twice onto the tool surfaces, and fluorescence images were captured under a 365 nm flashlight.

E. amylovora [3] = assay: Detection of E. amylovora on plant surfaces (spraying method), immature apples and apple blossoms; design: species or system Erwinia amylovora; conditions: 100 μM B-1 sprayed twice, 365 nm flashlight
Method: To evaluate whether E. amylovora present on actual plant surfaces could be detected using the phosphor compound B-1 synthesized in Example 1, a spraying-based detection was performed by applying B-1 to tissues (organs: fruits and blossoms) of a Fuji apple tree, and the procedure and results are shown in FIG. 7.
Specifically, to simulate plants infected with fire blight in fruit trees, E. amylovora quantified as described in Example 3 at concentrations of 10^2 to 10^8 CFU/mL was applied to immature apples (fruits) and apple blossoms using a brush, as shown in FIG. 7a. To allow E. amylovora to adhere to the plant surface, the samples were air-dried for 10 minutes. For detection, a 100 μM solution of B-1 diluted in […] was sprayed twice, and 10 minutes later, fluorescence changes were observed under a 365 nm flashlight.

E. amylovora [4] = assay: Time-dependent detection capability of B-1 for E. amylovora; format: cell-based, Erwinia amylovora; conditions: B-1 10 μM, E. amylovora 10^8 CFU/mL in DI H2O, 686 nm, excitation 550 nm, monitored up to 40 minutes
Method: Specifically, 10 μM of B-1 was reacted with E. amylovora at a concentration of 10^8 CFU/mL, quantified as described in Example 3, in DI H2O. Fluorescence changes were monitored at 686 nm with 550 nm excitation for up to 40 minutes.

E. amylovora [5] = assay: Detection of E. amylovora on apple tree tissues (spray and swab methods); design: species or system Erwinia amylovora; conditions: tissue incubated with E. amylovora 10^8 CFU/mL
Method: Detection of E. amylovora on each plant tissue was then attempted by either spraying with a 100 μM solution of B-1 or swabbing with a cotton swab soaked in B-1 solution. Fluorescence changes were observed under a 365 nm flashlight.

[6] = Absorption and fluorescence properties of B-1 in aqueous solution; format: physicochemical
Method: (§1) To evaluate the absorption and fluorescence properties of the phosphor compound B-1 synthesized in Example 1, the changes in the absorption and fluorescence spectra of B-1 were measured in aqueous solution and in the presence of Erwinia amylovora, the causal pathogen of fire blight in fruit trees, and the results are shown in FIG. 2.
(§2) Specifically, the E. amylovora used in the experiment was cultured overnight at 26° C. in Luria-Bertani (LB) liquid medium. After cultivation, E. amylovora was harvested by centrifugation at 10,000 ref. First, B-1 was added, and its absorption and fluorescence spectra were analyzed in aqueous solution. Then, E. amylovora (4.3×10^8 CFU) was added to the aqueous solution containing B-1, and the changes in the absorption and fluorescence spectra were analyzed. A UV/Vis spectrophotometer (Agilent, USA) was used to analyze the absorbance spectra, and a fluorescence spectrophotometer (SHIMADZU CORP. RF-6000, Japan) was used for fluorescence spectra analysis. For all spectral measurements, a standard quartz cell with a path length of 1 cm (Hellma Analytics, Germany) was used.
(§3) The measurement results are shown in FIG. 2, where the absorption and fluorescence spectra of B-1 (10 μM) in aqueous solution are represented by a dashed line, and those in the presence of E. amylovora are represented by a solid line.

E. amylovora [7] = assay: Fluorescence response of B-1 according to concentration of E. amylovora; format: cell-based, Erwinia amylovora; conditions: B-1 10 μM, E. amylovora 2×10^6 to 4×10^8 CFU/mL in DI H2O, excitation 550 nm
Method: Specifically, to determine the concentration of E. amylovora obtained as described in Example 2, absorbance at 600 nm was measured (OD600 0.1=1×10^8 cells). E. amylovora was then diluted in DI H2O to concentrations ranging from 2×10^6 to 4×10^8 CFU/mL, and each dilution was reacted with 10 μM of B-1. Fluorescence intensity at 686 nm was recorded after excitation at 550 nm, and plotted on a graph.

Erwinia amylovora = assay: Absorption and fluorescence change of B-1 in the presence of E. amylovora; format: cell-based; conditions: B-1 10 μM, E. amylovora 4.3×10^8 CFU
Method: as §1, §2, §3

E. amylovora [8] = assay: Limit of detection of B-1 for E. amylovora; format: cell-based, Erwinia amylovora; conditions: B-1 5 μM in DI H2O, emission 686 nm, excitation 551 nm, serially diluted E. amylovora
Method: E. amylovora was serially diluted and reacted with the phosphor compound B-1 synthesized in Example 1 to evaluate its minimum detection capability, and the results are shown in FIG. 4.
Specifically, quantified E. amylovora, as prepared in Example 3, was reacted with 5 μM of B-1 in DI H2O. Fluorescence intensity was then measured at 686 nm with an excitation wavelength of 551 nm, and the results were plotted on a graph.

Compound: N=C(N)c1ccc(-c2cc3ccc(C(=N)N)cc3[nH]2)cc1 [DAPI, 4′,6-diamidino-2-phenylindole, reference compound]
staining of E. amylovora (confocal fluorescence) (E. amylovora [1]): fluorescence signals were observed

maximum absorption ([6]; B-1 10 μM in aqueous solution): 550 nm
fluorescence in aqueous solution ([6]; B-1 10 μM, aqueous solution, excitation 550 nm): little to no fluorescence
Compound: CN(C)c1ccc2cc3cc(C(=C(C#N)C#N)c4ccccc4)oc3cc2c1 [Compound B-1]
fluorescence of contaminated areas of pruning shears and trowel (E. amylovora [2]): emitted red fluorescence
lowest detectable level of E. amylovora on actual plant surfaces (E. amylovora [3]; ImageJ quantification): 10^2 CFU/mL
red fluorescence on immature apples and apple blossoms (E. amylovora [3]; E. amylovora 10^2 to 10^8 CFU/mL brushed on, 10 minutes): red fluorescence was observed for all concentrations
time to rapid fluorescence increase (E. amylovora [4]): ≤ 10 min
staining of E. amylovora (confocal fluorescence) (E. amylovora [1]): capable of staining live E. amylovora and produces strong red fluorescence
fluorescence on infected apple twigs, spraying (E. amylovora [5]; 100 μM B-1 sprayed, 365 nm flashlight): red fluorescence was observed
fluorescence of B-1-soaked swab rubbed onto infected apple blossoms and leaves (E. amylovora [5]; cotton swab soaked with B-1, 365 nm flashlight): red fluorescence was emitted from the swab
fluorescence intensity at 686 nm versus E. amylovora concentration (E. amylovora [7]): increased in proportion to the concentration of E. amylovora
change of absorption spectrum upon addition of E. amylovora (Erwinia amylovora): slight overall increase
wavelength of highest fluorescence increase (Erwinia amylovora; excitation 550 nm): 686 nm
fluorescence change upon addition of E. amylovora (Erwinia amylovora; excitation 550 nm, compared to aqueous condition alone): significant enhancement
lowest detectable concentration of E. amylovora (E. amylovora [8]): 10^2 CFU/mL
